The source of these data is patent US11897880B2, “7,8-dihydrobenzo[e]pyrido[3,4-c]azocine-2,5(3H,6H)-dione derivatives useful as a factor XIa inhibitors” (Janssen Pharmaceutica NV, priority 2021, dated 2024).

Like-named read-outs stand apart in the source and are kept apart here. A value given as a limit tells only on which side of the number the result lay.

One assay addresses Factor XIa (Homo sapiens, UniProt P03951). Description: Factor XIa inhibition assay utilizing a fluorophore-quencher pair peptide substrate (FLINT). Type of assay: biochemical. The settings on record: for IC50: read-out: FXIa IC50; for Ki: read-out: FXIa Ki. An excerpt:
Biological Example 1: Factor XIa Inhibition Assay Utilizing a Fluorophore-Quencher Pair Peptide Substrate
A fluorescence intensity (FLINT) based assay was used to monitor inhibition of Factor XIa. The peptide substrate, 5Fam-KLTRAETV-K5Tamra (purchased from New England Peptide) was chosen based on the FXI sequence. Conversion of zymogen FXI to its activated form, FXIa, occurs by proteolytic cleavage by […] at two sites, Arg146 and Arg180. The custom peptide used in this assay was based on the Arg146 cleavage site of FXI. The peptide substrate was designed with a fluorophore-quencher pair, where the fluorescence is quenched until FXIa cleaves the 8-mer peptide after the Arg residue.
The Factor XIa FLINT assay was used with the following 5Fam-KLTRAETV-K5Tamra assay buffer: 50 mM Tris, pH 7.5, 100 mM NaCl, 5 mM CaCl2), 0.1 mg/mL BSA, 0.03% CHAPS. Assay buffer was prepared by mixing all ingredients fresh. 5Fam-KLTRAETV-K5Tamra peptide substrate was first prepared at 10 mM in 100% DMSO, then diluted to 3 mM in 100% DMSO. Assay buffer was then added directly to the 3 mM stock of substrate to prepare the 30 μM 2× working concentration (15 μM final concentration). The 2× Factor XIa stock solution was prepared by diluting 6.562 μM stock in 1× assay buffer for a […].
Test compound(s) were run in an 11-point, 3-fold serial dilution with a final top compound concentration of 100 nM. Final DMSO in assay was 2%. FXIa was preincubated with compound for 30-minutes and then substrate was added to initiate the reaction. The assay was run with kinetic (KIN) reads at 5 min intervals over 30 minutes. The time course was linear using […] FXIa greater than 30 minutes. More specifically, the assay was run as follows: • 100 nL of 0.01 mM test compound was dispensed into black 384-well non-binding Greiner BioOne 784900 plate for 0.1 μM final concentration; • 5 μL of 1× assay buffer was dispensed to column 24 (low control) and 5 μL 2× Factor XIa solution was dispensed to columns 1-23 (column 23 high control); • the plate was centrifuged with a “cover” plate at 500 rpm for 1 min • the plate was pre-incubated for 30 minutes at room temperature with plate covered; • 5 μL of 2×5Fam-KLTRAETV-K5Tamra peptide substrate was dispensed into the entire plate, columns 1-24; • the plate was centrifuged with a “cover” plate at 500 rpm for 1 min; • the plate was read monitoring fluorescence intensity on the BMG PHERAStar at room temperature, using fluorescence module 485 nm/520 nm.
Percent inhibition (IC50) curves were generated per compound tested, and data was analyzed using a 4-parameter logistic fit using GeneData Screener. The relative fluorescence unit (RFU) values were normalized to percent inhibition using the following equation: % inhibition=((HC−LC)−(compound−LC)/(HC−LC))*100
where LC−low control=mean signal of no Factor XIa or 100% inhibition of Factor XIa; HC−high control=mean signal of Factor XIa+5Fam-KLTRAETV-K5Tamra peptide substrate with DMSO only.
An 11-point dose response curve for the test compound(s) was generated using GENDATA to determine IC50 value based on the following equation: Y=Bottom+(Top−Bottom)/(1+10^((log IC50−X)*HillSlope))
where Y is the % inhibition in the presence of X inhibitor concentration, Top=high control=mean signal of Factor XIa+5Fam-KLTRAETV-K5Tamra peptide substrate with DMSO only; Bottom=low control−mean signal of no Factor XIa or 100% inhibition of Factor XIa; HillSlope−Hill coefficient; and IC50=concentration of compound with 50% inhibition in relation to top/high control.
(§1) Representative compounds of formula (I) of the present invention were tested according to the procedure described in Biological Example 1 and Biological Example 2 above, with results as listed in Table 3, below.

In another assay the target is human plasma kallikrein (Homo sapiens, UniProt P03952). Description: Kallikrein inhibition assay utilizing a quenched AMC peptide substrate (FLINT). The assay is classed as biochemical. The conditions noted are these: 30 min preincubation, 50 μM Z-Gly-Pro-Arg-AMC, 2 nM kallikrein.
From the text: Biological Example 2: Kallikrein Inhibition Assay Utilizing a Quenched AMC Peptide Substrate
A fluorescence intensity (FLINT) based assay was used to monitor inhibition of human plasma kallikrein. The peptide substrate, Z-Gly-Pro-Arg-AMC (Purchased from Bachem; Catalog #1-1150) was chosen based on its relatively low KM for kallikrein which enables running the assay at lower substrate concentrations to control background fluorescence.
The Kallikrein FLINT assay was used with the following Z-Gly-Pro-Arg-AMC assay buffer: 50 mM Tris, pH 7.5, 100 mM NaCl, 5 mM CaCl2), 0.1 mg/mL BSA, 0.03% CHAPS. Assay buffer was prepared by mixing all ingredients fresh. 2× Z-Gly-Pro-Arg-AMC peptide substrate was prepared by diluting 10 mM stock into 1× assay buffer for a 100 μM working concentration (50 μM final concentration). The 2× kallikrein stock solution was prepared by diluting 14.76 μM stock in 1× assay buffer for a 4 nM working stock solution (2 nM final concentration).
Test compound(s) were run in an 11-point, 3-fold serial dilution with a final top compound concentration of 1 μM. Final DMSO in assay was 2%. Plasma kallikrein was pre-incubated for 30-minute with compound and then 50 μM substrate was added to initiate the reaction. The assay was run with kinetic (KIN) reads at 5 min intervals over 30 minutes. The time course was linear using 2 nM kallikrein greater than 30 minutes. More specifically, the assay was run as follows: • 100 nL of 0.1 mM test compound was dispensed into black 384-well non-binding Greiner BioOne 784900 plate for 1 μM final concentration; • 5 μL of 1× assay buffer was dispensed to columns 24 (low control) and 5 μL 2× human kallikrein enzyme solution was dispensed to columns 1-23 (column 23 high control); • the plate was centrifuged with a “cover” plate at 500 rpm for 1 min • the plate was pre-incubated for 30 minutes at room temperature with plate covered; • 5 μL of 2× Z-Gly-Pro-Arg-AMC peptide substrate was dispensed into the entire plate, columns 1-24; • the plate was centrifuged with a “cover” plate at 500 rpm for 1 min; the plate was read monitoring fluorescence intensity on the BMG PHERAStar at room temperature, using fluorescence module 340 nm/440 nm.
Percent inhibition (IC50) curves were generated per compound tested, and data was analyzed using a 4-parameter logistic fit using GeneData Screener. The relative fluorescence unit (RFU) values were normalized to percent inhibition using the following equation: % inhibition=((HC−LC)−(compound−LC)/(HC−LC))*100 where LC—low control=mean signal of human kallikrein enzyme or 100% inhibition of human kallikrein enzyme; HC—high control=mean signal of […]+Z-Gly-Pro-Arg-AMC peptide substrate with DMSO only.
An 11-point dose response curve for the test compound(s) was generated using GENDATA to determine IC50 value based on the following equation: Y=Bottom+(Top−Bottom)/(1+10^((log IC50−X)*HillSlope)) • where Y is the % inhibition in the presence of X inhibitor concentration, Top=high control=mean signal of human kallikrein enzyme+Z-Gly-Pro-Arg-AMC peptide substrate with DMSO only; Bottom=low control−mean signal of no human kallikrein enzyme or 100% inhibition of human kallikrein enzyme; HillSlope—Hill coefficient; and IC50=concentration of compound with 50% inhibition in relation to top/high control.
as §1

The mark [1] stands for this setting: 30 min preincubation, 5Fam-KLTRAETV-K5Tamra substrate 15 μM final, kinetic reads.
The mark [2] stands for this setting: cells that print μM themselves in the nM column.
The mark [3] stands for this setting: cells that print μM themselves in the nM column, same assay conditions.

Chain of human plasma kallikrein (P03952 391-638 limits assumed): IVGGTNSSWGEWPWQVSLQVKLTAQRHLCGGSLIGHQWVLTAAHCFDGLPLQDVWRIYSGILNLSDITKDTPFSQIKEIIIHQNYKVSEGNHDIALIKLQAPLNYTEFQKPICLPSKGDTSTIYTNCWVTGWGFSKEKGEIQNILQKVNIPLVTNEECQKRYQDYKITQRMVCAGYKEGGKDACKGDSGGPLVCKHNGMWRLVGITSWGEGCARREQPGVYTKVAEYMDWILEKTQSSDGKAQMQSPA
Chain of human plasma kallikrein (P03952 20-390 partner limits assumed): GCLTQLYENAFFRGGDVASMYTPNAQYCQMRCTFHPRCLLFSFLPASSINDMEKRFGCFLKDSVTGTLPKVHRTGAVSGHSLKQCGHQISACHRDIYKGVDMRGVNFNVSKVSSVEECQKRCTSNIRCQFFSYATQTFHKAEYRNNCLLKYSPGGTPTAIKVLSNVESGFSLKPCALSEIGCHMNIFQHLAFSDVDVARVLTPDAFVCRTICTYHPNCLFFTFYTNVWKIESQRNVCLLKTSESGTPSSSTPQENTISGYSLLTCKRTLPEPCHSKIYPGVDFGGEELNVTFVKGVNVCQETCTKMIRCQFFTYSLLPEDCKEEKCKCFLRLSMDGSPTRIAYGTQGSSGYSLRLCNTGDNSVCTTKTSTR
Chain of Factor XIa (P03951 388-625 limits assumed): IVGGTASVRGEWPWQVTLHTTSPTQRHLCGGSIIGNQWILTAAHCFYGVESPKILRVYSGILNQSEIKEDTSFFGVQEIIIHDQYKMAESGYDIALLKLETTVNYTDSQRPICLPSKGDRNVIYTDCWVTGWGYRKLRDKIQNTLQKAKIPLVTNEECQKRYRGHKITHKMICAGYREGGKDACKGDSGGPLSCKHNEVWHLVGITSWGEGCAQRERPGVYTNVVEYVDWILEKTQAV
Chain of Factor XIa (P03951 19-387 partner limits assumed): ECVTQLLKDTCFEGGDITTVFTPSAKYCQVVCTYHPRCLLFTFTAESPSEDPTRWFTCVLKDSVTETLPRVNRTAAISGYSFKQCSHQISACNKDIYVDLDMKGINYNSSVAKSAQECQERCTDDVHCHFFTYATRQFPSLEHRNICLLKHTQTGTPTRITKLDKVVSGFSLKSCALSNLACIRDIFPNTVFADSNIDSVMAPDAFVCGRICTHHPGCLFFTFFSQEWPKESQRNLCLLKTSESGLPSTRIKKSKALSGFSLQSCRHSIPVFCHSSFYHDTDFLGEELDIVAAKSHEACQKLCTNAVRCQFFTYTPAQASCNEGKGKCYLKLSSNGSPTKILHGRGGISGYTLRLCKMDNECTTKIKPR

The IC50 is the concentration at which inhibition is half-maximal. As a reminder, the Ki is a measure of affinity in units of concentration, obtained from inhibition or displacement. Take `O=C1NC2(CC2)Cc2ccc(Cl)c(F)c2-c2cc(=O)n(C(CC3CC3)c3ncc(-c4cc[n+]([O-])cc4)[nH]3)cc21` (single isomer, unassigned) [Compound 56, (S*)-4-(2-(1-(11-chloro-12-fluoro-2,5-dioxo-2,5,6,8-tetrahydro-3H-spiro[benzo[e]pyrido[3,4-c]azocine-7,1′-cyclopropan]-3-yl)-2-cyclopropylethyl)-1H-imidazol-5-yl)pyridine 1-oxide]: the IC50 on Factor XIa (setting [1]) was 0.882 µM; at human plasma kallikrein, greater than 10 µM. In addition, the Ki at Factor XIa stood at 0.441 µM.

Regarding `O=C1NC2(CC2)Cc2ccc(Cl)c(F)c2-c2cc(=O)n(C(CC3CC3)c3ncc(-c4cc[n+]([O-])cc4)[nH]3)cc21` (single isomer, unassigned) [Compound 57, (R*)-4-(2-(1-(11-chloro-12-fluoro-2,5-dioxo-2,5,6,8-tetrahydro-3H-spiro[benzo[e]pyrido[3,4-c]azocine-7,1′-cyclopropan]-3-yl)-2-cyclopropylethyl)-1H-imidazol-5-yl)pyridine 1-oxide], the Ki at Factor XIa (setting [2]) was found to be 4.84 µM. For the same molecule, the IC50 on Factor XIa (setting [3]) is 9.69 µM; against human plasma kallikrein, greater than 10 µM.

Regarding `Cn1ncc(-c2cnc(C(CC3CC3)n3cc4c(cc3=O)-c3c(ccc(Cl)c3F)CC3(CC3)NC4=O)[nH]2)cc1=O` (single isomer, unassigned) [Compound 58, (R*)-11-chloro-3-(2-cyclopropyl-1-(5-(1-methyl-6-oxo-1,6-dihydropyridazin-4-yl)-1H-imidazol-2-yl)ethyl)-12-fluoro-3H-spiro[benzo[e]pyrido[3,4-c]azocine-7,1′-cyclopropane]-2,5(6H,8H)-dione], on Factor XIa (setting [2]), the Ki was greater than 5 µM. Also, the IC50 on Factor XIa (setting [3]) and on human plasma kallikrein was greater than 10 µM each time.

Consider `Cn1ncc(-c2cnc(C(CC3CC3)n3cc4c(cc3=O)-c3c(ccc(Cl)c3F)CC3(CC3)NC4=O)[nH]2)cc1=O` (single isomer, unassigned) [Compound 59, (S*)-11-chloro-3-(2-cyclopropyl-1-(5-(1-methyl-6-oxo-1,6-dihydropyridazin-4-yl)-1H-imidazol-2-yl)ethyl)-12-fluoro-3H-spiro[benzo[e]pyrido[3,4-c]azocine-7,1′-cyclopropane]-2,5(6H,8H)-dione], for which the inhibition constant (Ki) on Factor XIa (setting [2]) was found to be 2.19 µM. Further, the IC50 is 4.39 µM on Factor XIa (setting [3]) and greater than 10 µM against human plasma kallikrein.

Turning to `Cn1cc(-c2cnc(C(CC3CC3)n3cc4c(cc3=O)-c3c(ccc(Cl)c3F)CC3(CC3)NC4=O)[nH]2)ccc1=O` (single isomer, unassigned) [Compound 60, (R*)-11-chloro-3-(2-cyclopropyl-1-(5-(1-methyl-6-oxo-1,6-dihydropyridin-3-yl)-1H-imidazol-2-yl)ethyl)-12-fluoro-3H-spiro[benzo[e]pyrido[3,4-c]azocine-7,1′-cyclopropane]-2,5(6H,8H)-dione], at Factor XIa (setting [2]), the inhibition constant (Ki) is roughly 4.81 µM. Moreover, the half-maximal inhibitory concentration (IC50) on Factor XIa (setting [3]) was roughly 9.61 µM; against human plasma kallikrein it was greater than 10 µM.

In the case of `COC(=O)Nc1ccc(-c2cnc(C(CC3CC3)n3cc4c(cc3=O)-c3c(ccc(Cl)c3F)CC3(CC3)NC4=O)[nH]2)cc1` (single isomer, unassigned) [Compound 62, Methyl (R*)-(4-(2-(1-(11-chloro-12-fluoro-2,5-dioxo-2,5,6,8-tetrahydro-3H-spiro[benzo[e]pyrido[3,4-c]azocine-7,1′-cyclopropan]-3-yl)-2-cyclopropylethyl)-1H-imidazol-5-yl)phenyl)carbamate], the IC50 on Factor XIa (setting [1]) worked out at 0.0486 µM; at human plasma kallikrein it was 5.37 µM. Besides, the inhibition constant Ki on Factor XIa is 0.0243 µM.

For `Cn1cc(-c2cnc(C(CC3CC3)n3cc4c(cc3=O)-c3c(ccc(Cl)c3F)CC3(CC3)NC4=O)[nH]2)ccc1=O` (single isomer, unassigned) [Compound 63, (S*)-11-chloro-3-(2-cyclopropyl-1-(5-(1-methyl-6-oxo-1,6-dihydropyridin-3-yl)-1H-imidazol-2-yl)ethyl)-12-fluoro-3H-spiro[benzo[e]pyrido[3,4-c]azocine-7,1′-cyclopropan]-2,5(6H,8H)-dione], the concentration for half-maximal inhibition (IC50) at Factor XIa (setting [3]) is 1.16 µM; against human plasma kallikrein it was greater than 10 µM. The Ki on Factor XIa was found to be 0.578 µM.

For `O=C1NC2(CC2)Cc2ccc(Cl)c(F)c2-c2cc(=O)n(C(CC3CC3)c3ncc(-c4ccc(F)cc4)[nH]3)cc21` (single isomer, unassigned) [Compound 64, (R*)-11-chloro-3-(2-cyclopropyl-1-(5-(4-fluorophenyl)-1H-imidazol-2-yl)ethyl)-12-fluoro-3H-spiro[benzo[e]pyrido[3,4-c]azocine-7,1′-cyclopropane]-2,5(6H,8H)-dione], the results for the IC50 at Factor XIa (setting [3]) and against human plasma kallikrein were 1.13 µM and greater than 10 µM, respectively. The inhibition constant Ki on Factor XIa came out at 0.564 µM.

For the molecule `O=C1NC2(CC2)Cc2ccc(Cl)c(F)c2-c2cc(=O)n(C(CC3CC3)c3ncc(-c4ccc(F)cc4)[nH]3)cc21` (single isomer, unassigned) [Compound 65, (S*)-11-chloro-3-(2-cyclopropyl-1-(5-(4-fluorophenyl)-1H-imidazol-2-yl)ethyl)-12-fluoro-3H-spiro[benzo[e]pyrido[3,4-c]azocine-7,1′-cyclopropane]-2,5(6H,8H)-dione], the half-inhibitory concentration (IC50) stood at 0.102 µM at Factor XIa (setting [1]) and 5.72 µM against human plasma kallikrein. Further, at Factor XIa, the Ki came to 0.0508 µM.
